Measured values reported in patent US5407911A, “Parathyroid hormone-containing emulsion for nasal administration” (Asahi Kasei Kogyo Kabushiki Kaisha, priority 1991, dated 1995).
Values belong to the molecule of their own block, whether it stands above or below them.

Tests used:
Type in all cases: physicochemical
[1] = Stabilities of the emulsions according to the added concentrations of the azacycloalkane derivative (Referential Experiment 2); conditions: for Observation after 3 days standing / Observation after 7 days standing: room temperature
Description: Each 5 ml of a 1% (W/V) solution preliminarily prepared by dissolving dipotassium glycyrrhizate in distilled water was poured in each of eight 10 ml size test tubes, and thereto was added 1-[2-(decylthio)ethyl] azacyclopentane-2-one selected from the azacycloalkane derivatives so as to make a concentration ranging from 0 to 10%. Then the mixture was agitated for 1 minute using Biomixer (NIHON SEIKI SEISAKUSHO) at 15,000 rpm to prepare each emulsion. The state of dispersion just after the preparation, or after 3 days or 7 days standing at room temperature was observed.

[2] = Turbidity just after preparation (absorbance at 650 nm) as index of emulsifiability (Referential Experiment 1); conditions: for Turbidity (650 nm): just after preparation
Description: (§1) […] The mixutre was agitated under 15,000 rpm for 1 minute by Biomixer (NIHON SEIKI SEISAKUSHO) to prepare each emulsion. The state of dispersion just after the preparation and after 3 days standing at room temperature was observed. The turbidity just after the preparation was measured by absorbance at 650 nm, and used as the index of emulsifiability.

[3] = State of dispersion of emulsions of 1-[2-(decylthio)ethyl]azacyclopentan-2-one made with three emulsifying agents (Referential Experiment 1)
Description: Using 1-[2-(decylthio)ethyl]azacyclopentan-2-one selected from the azacycloalkane derivatives, and three emulsifying agents hereinbelow, emulsifiabilities and stabilities of the emulsions were examined.
as §1

[4] = azacycloalkane 10.0 % in 1% dipotassium glycyrrhizate

Observation just after preparation ([1]; azacycloalkane 0.01 % in 1% dipotassium glycyrrhizate): Colorless clear
Observation after 3 days standing ([1]; azacycloalkane 0.01 %): Colorless clear
Observation after 7 days standing ([1]; azacycloalkane 0.01 %): Colorless clear
Observation just after preparation ([1]; azacycloalkane 0.1 % in 1% dipotassium glycyrrhizate): Colorless clear
Observation after 3 days standing ([1]; azacycloalkane 0.1 %): Colorless clear
Observation after 7 days standing ([1]; azacycloalkane 0.1 %): Colorless clear
Observation just after preparation ([1]; azacycloalkane 0.5 % in 1% dipotassium glycyrrhizate): Colorless clear
Observation after 3 days standing ([1]; azacycloalkane 0.5 %): Colorless clear
Observation after 7 days standing ([1]; azacycloalkane 0.5 %): Colorless clear
Observation just after preparation ([1]; azacycloalkane 1.0 % in 1% dipotassium glycyrrhizate): White clear
Observation after 3 days standing ([1]; azacycloalkane 1.0 %): White clear
Observation after 7 days standing ([1]; azacycloalkane 1.0 %): White clear
Observation just after preparation ([1]; azacycloalkane 2.0 % in 1% dipotassium glycyrrhizate): White clear
Observation after 3 days standing ([1]; azacycloalkane 2.0 %): White clear
Observation after 7 days standing ([1]; azacycloalkane 2.0 %): White clear
Observation just after preparation ([1]; azacycloalkane 5.0 % in 1% dipotassium glycyrrhizate): White emulsified
Observation after 3 days standing ([1]; azacycloalkane 5.0 %): White emulsified
Observation after 7 days standing ([1]; azacycloalkane 5.0 %): White emulsified
Observation just after preparation [1, 4]: White emulsified
Observation after 3 days standing [1, 4]: White emulsified
Observation after 7 days standing [1, 4]: White emulsified
SMILES: CCCCCCCCCCSCCN1CCCC1=O [1-[2-(decylthio)ethyl]azacyclopentane-2-one]
Emulsification and emulsion stability ([1]; azacycloalkane 0.01% to 10% at 1% dipotassium glycyrrhizate): good emulsification and gave stable emulsion

Turbidity (650 nm) ([2]; emulsifying agent 0.1 %): 1.284
Turbidity (650 nm) ([2]; emulsifying agent 0.5 %): 0.459
Turbidity (650 nm) ([2]; emulsifying agent 1.0 %): 0.437
Turbidity (650 nm) ([2]; emulsifying agent 2.0 %): 0.405
Turbidity (650 nm) ([2]; emulsifying agent 3.0 %): 0.346
Turbidity (650 nm) ([2]; emulsifying agent 4.0 %): 0.006
Turbidity (650 nm) ([2]; emulsifying agent 5.0 %): 0.006
Turbidity as index of emulsifiability, compared with HCO-60 and polysorbate 80 ([2]; same concentration level): stronger emulsifiability
Just after preparation (state of dispersion) ([3]; emulsifying agent 0.5 %): White clear
Just after preparation (state of dispersion) ([3]; emulsifying agent 1.0 %): White clear
Just after preparation (state of dispersion) ([3]; emulsifying agent 2.0 %): White clear
Just after preparation (state of dispersion) ([3]; emulsifying agent 3.0 %): White clear
Emulsification ([3]; emulsifying agent at 0.1-5 %): good emulsification
Dissolution ([3]; emulsifying agent at 4-5 %): full dissolution
SMILES: CC1(C)[C@@H](O[C@H]2O[C@H](C(=O)[O-])[C@@H](O)[C@H](O)[C@H]2O[C@@H]2O[C@H](C(=O)[O-])[C@@H](O)[C@H](O)[C@H]2O)CC[C@]2(C)[C@H]3C(=O)C=C4[C@@H]5C[C@@](C)(C(=O)O)CC[C@]5(C)CC[C@@]4(C)[C@]3(C)CC[C@@H]12.[K+].[K+] [dipotassium glycyrrhizate]
